The source of these data is patent US20250296959A1, “B7-H3 TARGETING PEPTIDES AND CONSTRUCTS THEREOF” (Mariana Oncology Inc., priority 2024, published 2025).

Starred links: 1 amine or outer side, 2 acyl side, 3 side chain; linkers in the order of their positions; H or OH if unused. Positions of bridges follow the written chain, without caps; N, C: chain ends. Non-standard residues stand in square brackets, D forms with d. Residues, ends and D or L forms follow the SMILES beside them. Groups on a side chain read outwards from the residue. *: point of attachment. Ala(piperidin-4-yl) = O=C([C@H](CC1CCN([*:3])CC1)N[*:1])[*:2]; DOTA = O=C(O)CN1CCN(CC(=O)O)CCN(CC(=O)*)CCN(CC(=O)O)CC1; Trp(4-Cl) = N[C@@H](Cc1c[nH]c2cccc(Cl)c12)C(=O)O; Trp(5-F) = N[C@@H](Cc1c[nH]c2ccc(F)cc12)C(=O)O; X13 = NC(=O)N1CCC(C[C@H](N[*:1])C(=O)[*:2])CC1; X1 = C[C@@H](c1ccccc1)[C@H](N[*:1])C(=O)[*:2]; PEG8 = NCCOCCOCCOCCOCCOCCOCCOCCOCCC(=O)O; 2Nal = N[C@@H](Cc1ccc2ccccc2c1)C(=O)O; Ala(4-THP) = N[C@@H](CC1CCOCC1)C(=O)O; αMeY = C[C@](N)(Cc1ccc(O)cc1)C(=O)O; Val(3-OH) = CC(C)(O)[C@H](N)C(=O)O; 4Pal = N[C@@H](Cc1ccncc1)C(=O)O; Cha = N[C@@H](CC1CCCCC1)C(=O)O; NMeK = CN[C@@H](CCCCN)C(=O)O; PEG4 = NCCOCCOCCOCCOCCC(=O)O; Tle = CC(C)(C)[C@H](N)C(=O)O; hLeu = CC(C)CC[C@H](N)C(=O)O; NMeS = CN[C@@H](CO)C(=O)O Bounds are passed on as bounds.

The target of the experiment is T1, human 4lg B7-H3 (Homo sapiens, UniProt Q5ZPR3).
T1 sequence (Q5ZPR3 29-534): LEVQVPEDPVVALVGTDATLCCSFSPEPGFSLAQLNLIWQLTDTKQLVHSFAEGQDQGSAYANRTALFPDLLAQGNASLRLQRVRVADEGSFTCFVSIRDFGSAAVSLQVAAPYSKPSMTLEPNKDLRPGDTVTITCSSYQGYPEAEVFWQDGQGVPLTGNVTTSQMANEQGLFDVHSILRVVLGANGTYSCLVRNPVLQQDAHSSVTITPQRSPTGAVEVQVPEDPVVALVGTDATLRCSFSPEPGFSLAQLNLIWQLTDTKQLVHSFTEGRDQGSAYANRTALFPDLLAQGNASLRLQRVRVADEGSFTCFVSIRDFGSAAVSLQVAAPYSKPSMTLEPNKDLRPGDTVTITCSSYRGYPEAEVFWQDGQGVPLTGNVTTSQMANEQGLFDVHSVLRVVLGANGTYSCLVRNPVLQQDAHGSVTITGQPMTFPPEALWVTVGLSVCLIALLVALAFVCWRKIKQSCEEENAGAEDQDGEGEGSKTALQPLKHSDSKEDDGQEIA
The experiment in a line: Affinity determination by surface plasmon resonance (SPR) to 4Ig B7-H3. Particulars: 4Ig B7-H3.

[1] abbreviates: SPR KD—37° C., 37° C. flow cell temperature.
[2] abbreviates: SPR KD—25° C., 25° C. flow cell temperature.

As to `CC(C)CC[C@H](NC(=O)CCOCCOCCOCCOCCOCCOCCOCCOCCNC(=O)CN1CCN(CC(=O)O)CCN(CC(=O)O)CCN(CC(=O)O)CC1)C(=O)N[C@@H](Cc1ccc(O)cc1)C(=O)N[C@H]1CSSC[C@@H](C(=O)N[C@@H](Cc2c[nH]c3ccc(F)cc23)C(=O)N[C@@H](Cc2ccccc2)C(=O)N[C@H](C(N)=O)C(C)(C)O)NC(=O)[C@H](Cc2ccc(O)cc2)NC(=O)[C@H](C(C)C)NC(=O)[C@H](CC(=O)O)NC(=O)[C@H](CC2CCOCC2)NC(=O)[C@H](CCCCN)NC(=O)CNC(=O)[C@H](C(C)(C)C)NC1=O` [Cpd #391, DOTA-PEG8-hLeu-Y-C-Tbg-G-K-ThpA-D-V-Y-C-5FW-F-hydroxyVal-CONH2] ({DOTA-PEG8}-[hLeu]YC[Tle]GK[Ala(4-THP)]DVYC[Trp(5-F)]F[Val(3-OH)]-NH2; disulfide 3-11), the Kd (as a rule, the equilibrium constant for the complex coming apart) under setting [1] lay in the range of 1 to 10 nM.
The same measure, in the same setting: in the case of `CC(=O)N[C@@H](CCC(C)C)C(=O)N[C@@H](Cc1ccc(O)cc1)C(=O)N[C@H]1CSSC[C@@H](C(=O)N[C@@H](Cc2c[nH]c3ccc(F)cc23)C(=O)N[C@@H](Cc2ccccc2)C(=O)N[C@H](C(=O)N[C@H](CO)C(N)=O)C(C)(C)O)NC(=O)[C@H](Cc2ccc(O)cc2)NC(=O)[C@H](C(C)C)NC(=O)[C@H](CC(=O)O)NC(=O)[C@H](CC2CCOCC2)NC(=O)[C@H](CCCCNC(=O)CN2CCN(CC(=O)O)CCN(CC(=O)O)CCN(CC(=O)O)CC2)NC(=O)CNC(=O)[C@H](C(C)(C)C)NC1=O` [compound 422, Ac-hLeu-Y-C-Tbg-G-Lys(DOTA)-ThpA-D-V-Y-C-5FW-F-hydroxyVal-dSer-CONH2] (Ac-[hLeu]YC[Tle]GK(DOTA)[Ala(4-THP)]DVYC[Trp(5-F)]F[Val(3-OH)][dS]-NH2; disulfide 3-11) it was 1 to 10 nM.
For `CC(=O)N[C@@H](CCC(C)C)C(=O)N[C@@H](Cc1ccc(O)cc1)C(=O)N[C@H]1CSSC[C@@H](C(=O)N[C@@H](Cc2ccc3ccccc3c2)C(=O)N[C@@H](Cc2ccccc2)C(=O)N[C@H](C(=O)N[C@H](CCCCNC(=O)CN2CCN(CC(=O)O)CCN(CC(=O)O)CCN(CC(=O)O)CC2)C(=O)O)[C@@H](C)O)NC(=O)[C@H](Cc2ccc(O)cc2)NC(=O)[C@H](C(C)C)NC(=O)[C@H](CC(=O)O)NC(=O)[C@H](Cc2ccc(O)cc2)NC(=O)[C@H](CCCCN)NC(=O)CNC(=O)[C@H](C(C)C)NC1=O` [compound 159, Ac-hLeu-Y-C-V-G-K-Y-D-V-Y-C-2Nal-F-Thr-dLys(DOTA)-CONH2] (Ac-[hLeu]YCVGKYDVYC[2Nal]FT[dK](DOTA)-OH; disulfide 3-11), the Kd under setting [2] was in the range of 10 to 100 nM.
Still for that read-out and setting: in the case of `CC(=O)N[C@@H](CCC(C)C)C(=O)N[C@@](C)(Cc1ccc(O)cc1)C(=O)N[C@H]1CSSC[C@@H](C(=O)N[C@@H](Cc2c[nH]c3ccc(F)cc23)C(=O)N[C@@H](Cc2ccccc2)C(=O)N[C@H](C(=O)N[C@H](CCCCNC(=O)CN2CCN(CC(=O)O)CCN(CC(=O)O)CCN(CC(=O)O)CC2)C(N)=O)[C@@H](C)O)NC(=O)[C@H](Cc2ccc(O)cc2)NC(=O)[C@H](C(C)C)NC(=O)[C@H](CC(=O)O)NC(=O)[C@H](Cc2ccc(O)cc2)NC(=O)[C@H](CCCCN)NC(=O)CNC(=O)[C@H](C(C)C)NC1=O` [compound 195, Ac-hLeu-aMeTyr-C-V-G-K-Y-D-V-Y-C-5FW-F-Thr-dLys(DOTA)-CONH2] (Ac-[hLeu][αMeY]CVGKYDVYC[Trp(5-F)]FT[dK](DOTA)-NH2; disulfide 3-11) it was 10 to 100 nM.
For the compound `CC[C@H](C)[C@@H]1NC(=O)[C@@H](NC(=O)[C@H](Cc2ccc(O)cc2)NC(=O)[C@H](CCC(C)C)NC(C)=O)CSSC[C@@H](C(=O)N[C@@H](Cc2c[nH]c3ccc(F)cc23)C(=O)N[C@@H](Cc2ccccc2)C(=O)N2CCC[C@H]2C(N)=O)NC(=O)[C@H](Cc2ccc(O)cc2)NC(=O)[C@H](C(C)C)NC(=O)[C@H](CC(=O)O)NC(=O)[C@H](Cc2ccncc2)NC(=O)[C@H](CCCCNC(=O)CN2CCN(CC(=O)O)CCN(CC(=O)O)CCN(CC(=O)O)CC2)NC(=O)CNC1=O` [compound 260, Ac-hLeu-Y-C-Ile-G-Lys(DOTA)-4PyA-D-V-Y-C-5FW-F-Pro-CONH2] (Ac-[hLeu]YCIGK(DOTA)[4Pal]DVYC[Trp(5-F)]FP-NH2; disulfide 3-11), the Kd under setting [2] was in the range of 1 to 10 nM.
`CC(=O)N[C@@H](CCC(C)C)C(=O)N[C@@H](Cc1ccc(O)cc1)C(=O)N[C@H]1CSSC[C@@H](C(=O)N[C@@H](Cc2c[nH]c3cccc(Cl)c23)C(=O)N[C@@H](Cc2ccccc2)C(=O)N[C@H](C(=O)N[C@H](CCCCNC(=O)CN2CCN(CC(=O)O)CCN(CC(=O)O)CCN(CC(=O)O)CC2)C(=O)O)C(C)(C)O)NC(=O)[C@H](Cc2ccc(O)cc2)NC(=O)[C@H](C(C)C)NC(=O)[C@H](CC(=O)O)NC(=O)[C@H](CC2CCOCC2)NC(=O)[C@H](CC2CCNCC2)NC(=O)CNC(=O)[C@H](C(C)(C)C)NC1=O` [compound 472, Ac-hLeu-Y-C-Tbg-G-PipAla-ThpA-D-V-Y-C-4ClW-F-hydroxyVal-dLys(DOTA)-COOH] (Ac-[hLeu]YC[Tle]G[Ala(piperidin-4-yl)][Ala(4-THP)]DVYC[Trp(4-Cl)]F[Val(3-OH)][dK](DOTA)-OH; disulfide 3-11): under setting [1], the Kd was 1 to 10 nM.
`CC(=O)N[C@@H](CCC(C)C)C(=O)N[C@@H](Cc1ccc(O)cc1)C(=O)N[C@H]1CSSC[C@@H](C(=O)N[C@@H](Cc2c[nH]c3ccc(F)cc23)C(=O)N[C@@H](Cc2ccccc2)C(=O)N2CCC[C@H]2C(N)=O)NC(=O)[C@H](Cc2ccc(O)cc2)NC(=O)[C@H](C(C)C)NC(=O)[C@H](CC(=O)O)NC(=O)[C@H](CC2CCOCC2)NC(=O)[C@H](CCCCNC(=O)CN2CCN(CC(=O)O)CCN(CC(=O)O)CCN(CC(=O)O)CC2)NC(=O)CNC(=O)[C@H](C(C)C)NC1=O` [compound 292, Ac-hLeu-Y-C-V-G-Lys(DOTA)-ThpA-D-V-Y-C-5FW-F-Pro-CONH2] (Ac-[hLeu]YCVGK(DOTA)[Ala(4-THP)]DVYC[Trp(5-F)]FP-NH2; disulfide 3-11) had a Kd under setting [2] of 1 to 10 nM.
For `CC(=O)N[C@@H](CCC(C)C)C(=O)N[C@@H](Cc1ccc(O)cc1)C(=O)N[C@H]1CSSC[C@@H](C(=O)N[C@@H](Cc2c[nH]c3ccc(F)cc23)C(=O)N[C@@H](Cc2ccccc2)C(=O)N[C@H](C(=O)N[C@H](CCCCNC(=O)CN2CCN(CC(=O)O)CCN(CC(=O)O)CCN(CC(=O)O)CC2)C(=O)O)[C@@H](C)O)NC(=O)[C@H](Cc2ccc(O)cc2)NC(=O)[C@H](C(C)C)NC(=O)[C@H](CC(=O)O)NC(=O)[C@H](CC2CCOCC2)NC(=O)[C@H](CCCCN)N(C)C(=O)CNC(=O)[C@H](C(C)(C)C)NC1=O` [compound 352, Ac-hLeu-Y-C-Tbg-G-NMeLys-ThpA-D-V-Y-C-5FW-F-Thr-dLys(DOTA)-COOH] (Ac-[hLeu]YC[Tle]G[NMeK][Ala(4-THP)]DVYC[Trp(5-F)]FT[dK](DOTA)-OH; disulfide 3-11), under setting [2], the Kd is 10 to 100 nM.
As for `CC(=O)N[C@@H](CCC(C)C)C(=O)N[C@@H](Cc1ccc(O)cc1)C(=O)N[C@H]1CSSC[C@@H](C(=O)N[C@@H](Cc2c[nH]c3ccc(F)cc23)C(=O)N[C@@H](Cc2ccccc2)C(=O)N[C@H](C(=O)N[C@H](CCC(=O)O)C(=O)O)C(C)(C)O)NC(=O)[C@H](Cc2ccc(O)cc2)NC(=O)[C@H](C(C)C)NC(=O)[C@H](CC(=O)O)NC(=O)[C@H](CC2CCN(C(=O)CCOCCOCCOCCOCCNC(=O)CN3CCN(CC(=O)O)CCN(CC(=O)O)CCN(CC(=O)O)CC3)CC2)NC(=O)[C@H](CC2CCNCC2)NC(=O)CNC(=O)[C@H](C(C)(C)C)NC1=O` [compound 448, Ac-hLeu-Y-C-Tbg-G-PipAla-Pip(PEG4-DOTA)Ala-D-V-Y-C-5FW-F-hydroxyVal-dGlu-COOH] (Ac-[hLeu]YC[Tle]G[Ala(piperidin-4-yl)][Ala(piperidin-4-yl)]([PEG4-DOTA])DVYC[Trp(5-F)]F[Val(3-OH)][dE]-OH; disulfide 3-11), under setting [1], the Kd was under 1 nM.
Same read-out and setting: as for `CC(=O)N[C@@H](CCC(C)C)C(=O)N[C@@H](Cc1ccc(O)cc1)C(=O)N[C@H]1CSSC[C@@H](C(=O)N[C@@H](Cc2c[nH]c3ccc(F)cc23)C(=O)N[C@H](C(=O)N[C@H](C(=O)N[C@H](C)C(=O)O)C(C)(C)O)[C@@H](C)c2ccccc2)NC(=O)[C@H](Cc2ccc(O)cc2)NC(=O)[C@H](C(C)C)NC(=O)[C@H](CC(=O)O)NC(=O)[C@H](CC2CCN(C(=O)CCOCCOCCOCCOCCNC(=O)CN3CCN(CC(=O)O)CCN(CC(=O)O)CCN(CC(=O)O)CC3)CC2)NC(=O)[C@H](CC2CCN(C(N)=O)CC2)NC(=O)CNC(=O)[C@H](C(C)(C)C)NC1=O` [compound 514, Ac-hLeu-Y-C-Tbg-G-Pip(CONH2)Ala-Pip(PEG4-DOTA)Ala-D-V-Y-C-5FW-[(2S, 3S)beta-Me-Phe]-hydroxyVal-dAla-COOH] (Ac-[hLeu]YC[Tle]G[X13][Ala(piperidin-4-yl)]([PEG4-DOTA])DVYC[Trp(5-F)][X1][Val(3-OH)][dA]-OH; disulfide 3-11), the figure is under 1 nM.
As for `CC(=O)N[C@@H](CCC(C)C)C(=O)N[C@@H](Cc1ccc(O)cc1)C(=O)N[C@H]1CSSC[C@@H](C(=O)N[C@@H](Cc2c[nH]c3ccc(F)cc23)C(=O)N[C@@H](Cc2ccccc2)C(=O)N(C)[C@@H](CO)C(N)=O)NC(=O)[C@H](Cc2ccc(O)cc2)NC(=O)[C@H](C(C)C)NC(=O)[C@H](CC(=O)O)NC(=O)[C@H](CC2CCCCC2)NC(=O)[C@H](CCCCNC(=O)CN2CCN(CC(=O)O)CCN(CC(=O)O)CCN(CC(=O)O)CC2)NC(=O)CNC(=O)[C@H](C(C)C)NC1=O` [compound 233, Ac-hLeu-Y-C-V-G-Lys(DOTA)-CHA-D-V-Y-C-5FW-F-NMeSer-CONH2] (Ac-[hLeu]YCVGK(DOTA)[Cha]DVYC[Trp(5-F)]F[NMeS]-NH2; disulfide 3-11), the Kd under setting [2] is 10 to 100 nM.
